US12286427B2, “Heterocyclic compounds and uses thereof” (Kumquat Biosciences Inc., priority 2020, dated 2025)
pIC50: −log10 of the molar value.

How the values were obtained:
[1] = biological target: T1, wildtype Kras (Homo sapiens, UniProt P01116); test: Nucleotide exchange assay (SOS1-mediated, BODIPY FL GDP fluorescence); assay type: biochemical; details: 250 nM or 500 nM GDP-loaded K-Ras, SOS1 catalytic domain, fluorescent labelled GDP 0.36 μM, 70 minutes; read-out: IC50 against wildtype Kras
T1 construct: GST (N); made in house; host or cells: E. coli, e.g. BL21 (DE3)
T1 sequence (P01116 1-188 isoform P01116-2): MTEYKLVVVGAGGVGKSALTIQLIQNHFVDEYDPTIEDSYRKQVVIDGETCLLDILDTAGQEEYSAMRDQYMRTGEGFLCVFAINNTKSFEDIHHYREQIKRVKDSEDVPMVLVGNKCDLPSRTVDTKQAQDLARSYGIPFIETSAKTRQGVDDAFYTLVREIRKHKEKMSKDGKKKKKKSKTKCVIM
Procedure: (§1) For example, 250 nM or 500 nM GDP-loaded K-Ras proteins (e.g., wildtype or a mutant thereof including those mentioned in Example 6), each was incubated with different concentrations of compounds (for example ˜60 μM, ˜20 μM, ˜6.7 μM, ˜2.2 μM, ˜0.7 μM, ˜0.2 μM subject compound). A control reaction without subject compound was also included. SOS1 (catalytic domain) protein was added to the K-Ras protein solution. The nucleotide exchange reaction was initiated by adding fluorescent labelled GDP (Guanosine 5′-Diphosphate, BODIPY™ FL 2′-(or-3′)—O—(N-(2-Aminoethyl) Urethane) to a final concentration of 0.36 μM. Fluorescence was measured every 30 s for 70 minutes at 490 nm/515 nm (excitation/emission) in a M1000Pro plate reader (Tecan). Data is exported and analyzed to calculate an IC50 using GraphPad Prism (GraphPad Software). Samples were tested with or without a subject compound disclosed herein including compounds exemplified in Table 1 to assess each compound's ability to inhibit K-Ras signaling or its IC50 against a given Ras protein (e.g., a given mutant K-Ras) of interest.

[2] = biological target: mutant Kras (Homo sapiens, UniProt P01116); test: as above; assay type: biochemical; details: 250 nM or 500 nM GDP-loaded K-Ras, SOS1 catalytic domain, fluorescent labelled GDP 0.36 μM, 70 minutes; read-out: IC50 against mutant Kras
Chain of mutant Kras (P01116 whole entry G12D, form open, the tested form may be a part): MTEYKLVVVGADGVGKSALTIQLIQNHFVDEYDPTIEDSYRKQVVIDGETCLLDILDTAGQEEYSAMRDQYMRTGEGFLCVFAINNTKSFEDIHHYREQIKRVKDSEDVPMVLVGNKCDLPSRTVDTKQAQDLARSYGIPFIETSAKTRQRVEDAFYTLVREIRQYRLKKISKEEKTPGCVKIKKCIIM
Procedure: as §1

CN1CCC[C@H]1COc1nc(N2C[C@H](N)C[C@H](O)C2)c2cc(Cl)c(-c3cccc4sc(N)nc34)c(F)c2n1 [Compound 3, (3S,5R)-5-amino-1-(7-(2-aminobenzo[d]thiazol-4-yl)-6-chloro-8-fluoro-2-(((S)-1-methylpyrrolidin-2-yl)methoxy)quinazolin-4-yl)piperidin-3-ol]
pIC50 [1]: 5.30 to 6.30
pIC50 [2]: > 6.30

CN1CCC[C@H]1COc1nc(N2C[C@H](N)C[C@@H](O)C2)c2cc(Cl)c(-c3cccc4sc(N)nc34)c(F)c2n1 [Compound 4, (3R,5R)-5-amino-1-(7-(2-aminobenzo[d]thiazol-4-yl)-6-chloro-8-fluoro-2-(((S)-1-methylpyrrolidin-2-yl)methoxy)quinazolin-4-yl)piperidin-3-ol]
pIC50 [1]: < 5.30
pIC50 [2]: > 6.30

CN1CCC[C@H]1COc1nc(N2CC(N)CC(O)C2)c2cc(Cl)c(-c3cccc4sc(N)nc34)c(F)c2n1 (stereo partly drawn) [Compound 5, 5-amino-1-(7-(2-aminobenzo[d]thiazol-4-yl)-6-chloro-8-fluoro-2-(((S)-1-methylpyrrolidin-2-yl)methoxy)quinazolin-4-yl)piperidin-3-ol]
pIC50 [1]: 5.30 to 6.30
pIC50 [2]: > 6.30

CN1CCC[C@H]1COc1nc(N2C[C@H](N)C[C@H](F)C2)c2cc(Cl)c(-c3cccc4sc(N)nc34)c(F)c2n1 [Compound 6, 4-(4-((3R,5S)-3-amino-5-fluoropiperidin-1-yl)-6-chloro-8-fluoro-2-(((S)-1-methylpyrrolidin-2-yl)methoxy)quinazolin-7-yl)benzo[d]thiazol-2-amine]
pIC50 [1]: < 5.30
pIC50 [2]: 5.30 to 6.30

CN1CCC[C@H]1COc1nc(N2C[C@H](N)C[C@@H](F)C2)c2cc(Cl)c(-c3cccc4sc(N)nc34)c(F)c2n1 [Compound 7, 4-(4-((3R,5R)-3-amino-5-fluoropiperidin-1-yl)-6-chloro-8-fluoro-2-(((S)-1-methylpyrrolidin-2-yl)methoxy)quinazolin-7-yl)benzo[d]thiazol-2-amine]
pIC50 [1]: < 5.30
pIC50 [2]: 5.30 to 6.30

CN1CCC[C@H]1COc1nc(N2CCC[C@@H](N)C2)c2cc(Cl)c(-c3cccc4sc(N)nc34)c(F)c2n1 [Compound 8, 4-(4-((R)-3-aminopiperidin-1-yl)-6-chloro-8-fluoro-2-(((S)-1-methylpyrrolidin-2-yl)methoxy)quinazolin-7-yl)benzo[d]thiazol-2-amine]
pIC50 [1]: 5.30 to 6.30
pIC50 [2]: > 6.30

CN1CCC[C@H]1COc1nc(N2C[C@@H](N)[C@@H](F)C2)c2cc(Cl)c(-c3cccc4sc(N)nc34)c(F)c2n1 [Compound 10, 4-(4-((3R,4S)-3-amino-4-fluoropyrrolidin-1-yl)-6-chloro-8-fluoro-2-(((S)-1-methylpyrrolidin-2-yl)methoxy)quinazolin-7-yl)benzo[d]thiazol-2-amine]
pIC50 [1]: 5.30 to 6.30
pIC50 [2]: 5.30 to 6.30

CN1CCC[C@H]1COc1nc(N2CC[C@H](N)C2)c2cc(Cl)c(-c3cccc4sc(N)nc34)c(F)c2n1 [Compound 11, 4-(4-((S)-3-aminopyrrolidin-1-yl)-6-chloro-8-fluoro-2-(((S)-1-methylpyrrolidin-2-yl)methoxy)quinazolin-7-yl)benzo[d]thiazol-2-amine]
pIC50 [1]: 5.30 to 6.30
pIC50 [2]: > 6.30

Nc1nc2c(-c3c(Cl)cc4c(N5CCNCC5)nc(OCC56CCCN5CCC6)nc4c3F)cccc2s1 [Compound 12, 4-(6-chloro-8-fluoro-4-(piperazin-1-yl)-2-((tetrahydro-1H-pyrrolizin-7a(5H)-yl)methoxy)quinazolin-7-yl)benzo[d]thiazol-2-amine]
pIC50 [1]: 5.30 to 6.30
pIC50 [2]: > 6.30

Nc1nc2c(-c3cnc4c(N5CC6CCC(C5)N6)nc(OC[C@@]56CCCN5C[C@H](F)C6)nc4c3)ccc(F)c2s1 [Compound 13, 4-(4-(3,8-diazabicyclo[3.2.1]octan-3-yl)-2-(((2R,7aS)-2-fluorotetrahydro-1H-pyrrolizin-7a(5H)-yl)methoxy)pyrido[3,2-d]pyrimidin-7-yl)-7-fluorobenzo[d]thiazol-2-amine]
pIC50 [1]: < 5.30
pIC50 [2]: > 6.30

COc1nc2c(N3CC4CCC(C3)N4)nc(OC[C@@]34CCCN3C[C@H](F)C4)nc2cc1-c1ccc(F)c2sc(N)nc12 [Compound 14, 4-(4-(3,8-diazabicyclo[3.2.1]octan-3-yl)-2-(((2R,7aS)-2-fluorotetrahydro-1H-pyrrolizin-7a(5H)-yl)methoxy)-6-methoxypyrido[3,2-d]pyrimidin-7-yl)-7-fluorobenzo[d]thiazol-2-amine]
pIC50 [1]: 5.30 to 6.30
pIC50 [2]: > 6.30

COc1nc2c(N3C4CCC3CNC4)nc(OC[C@@]34CCCN3C[C@H](F)C4)nc2cc1-c1ccc(F)c2sc(N)nc12 [Compound 15, 4-(4-(3,8-diazabicyclo[3.2.1]octan-8-yl)-2-(((2R,7aS)-2-fluorotetrahydro-1H-pyrrolizin-7a(5H)-yl)methoxy)-6-methoxypyrido[3,2-d]pyrimidin-7-yl)-7-fluorobenzo[d]thiazol-2-amine]
pIC50 [1]: < 5.30
pIC50 [2]: > 6.30

Nc1nc2c(-c3cc4nc(OCC56CCCN5CCC6)nc(N5CC6CCC(C5)N6)c4nc3O)ccc(F)c2s1 [Compound 16, 7-(2-amino-7-fluorobenzo[d]thiazol-4-yl)-4-(3,8-diazabicyclo[3.2.1]octan-3-yl)-2-((tetrahydro-1H-pyrrolizin-7a(5H)-yl)methoxy)pyrido[3,2-d] pyrimidin-6-ol]
pIC50 [1]: < 5.30
pIC50 [2]: > 6.30

COc1nc2c(N3CC4CCC(C3)N4)nc(OCC34CCCN3CCC4)nc2cc1-c1ccc(F)c2sc(N)nc12 [Compound 17, 4-(4-(3,8-diazabicyclo[3.2.1]octan-3-yl)-6-methoxy-2-((tetrahydro-1H-pyrrolizin-7a(5H)-yl)methoxy)pyrido[3,2-d]pyrimidin-7-yl)-7-fluorobenzo[d]thiazol-2-amine]
pIC50 [1]: 5.30 to 6.30
pIC50 [2]: > 6.30

COc1nc2c(N3CCNCC3)nc(OC[C@@]34CCCN3C[C@H](F)C4)nc2cc1-c1ccc(F)c2sc(N)nc12 [Compound 18, 7-fluoro-4-(2-(((2R,7aS)-2-fluorotetrahydro-1H-pyrrolizin-7a(5H)-yl)methoxy)-6-methoxy-4-(piperazin-1-yl)pyrido[3,2-d]pyrimidin-7-yl) benzo[d]thiazol-2-amine]
pIC50 [1]: < 5.30
pIC50 [2]: 5.30 to 6.30

N#Cc1c(N)sc2c(F)ccc(-c3c(Cl)cc4c(N5C[C@H]6CC[C@@H](C5)N6)nc(OC[C@@]56CCCN5C[C@H](F)C6)nc4c3F)c12 [Compound 19, 4-(4-((1R,5S)-3,8-diazabicyclo[3.2.1]octan-3-yl)-6-chloro-8-fluoro-2-(((2R,7aS)-2-fluorotetrahydro-1H-pyrrolizin-7a(5H)-yl)methoxy)quinazolin-7-yl)-2-amino-7-fluorobenzo[b]thiophene-3-carbonitrile]
pIC50 [1]: > 6.30
pIC50 [2]: > 6.30

Nc1sc2c(F)ccc(-c3c(Cl)cc4c(N5C[C@H]6CC[C@@H](C5)N6)nc(OC[C@@]56CCCN5C[C@H](F)C6)nc4c3F)c2c1C1CC1 [Compound 20, 4-(4-((1R,5S)-3,8-diazabicyclo[3.2.1]octan-3-yl)-6-chloro-8-fluoro-2-(((2R,7aS)-2-fluorotetrahydro-1H-pyrrolizin-7a(5H)-yl)methoxy)quinazolin-7-yl)-3-cyclopropyl-7-fluorobenzo[b]thiophen-2-amine]
pIC50 [1]: 5.30 to 6.30
pIC50 [2]: > 6.30

Cc1c(N)sc2c(F)ccc(-c3c(Cl)cc4c(N5C[C@H]6CC[C@@H](C5)N6)nc(OC[C@@]56CCCN5C[C@H](F)C6)nc4c3F)c12 [Compound 21, 4-(4-((1R,5S)-3,8-diazabicyclo[3.2.1]octan-3-yl)-6-chloro-8-fluoro-2-(((2R,7aS)-2-fluorotetrahydro-1H-pyrrolizin-7a(5H)-yl)methoxy)quinazolin-7-yl)-7-fluoro-3-methylbenzo[b]thiophen-2-amine]
pIC50 [1]: > 6.30
pIC50 [2]: > 6.30

Cc1c(N)sc2cccc(-c3c(Cl)cc4c(N5C[C@H]6CC[C@@H](C5)N6)nc(OC[C@@]56CCCN5C[C@H](F)C6)nc4c3F)c12 [Compound 22, 4-(4-((1R,5S)-3,8-diazabicyclo[3.2.1]octan-3-yl)-6-chloro-8-fluoro-2-(((2R,7aS)-2-fluorotetrahydro-1H-pyrrolizin-7a(5H)-yl)methoxy)quinazolin-7-yl)-3-methylbenzo[b]thiophen-2-amine]
pIC50 [1]: > 6.30
pIC50 [2]: > 6.30
